Measurements as given in article PMC11873045, “Phytochemical profiling and various biological activities of Phlomis tuberosa L” (Scientific Reports, 2025).

Key:
[1] = test system: α-glucosidase; experiment: α-glucosidase inhibition (PNPG); format: biochemical, Saccharomyces cerevisiae; conditions: at 200 µg/mL
Method: 50 µL of phosphate buffer (0.01 M pH 6.9), 10 µL of sample solution, 50 µL of α-glucosidase from Saccharomyces cerevisiae in phosphate buffer (0.01 M pH 6.0) and 25 µL of PNPG (4-N-nitrophenyl-α-d-glucopyranoside) in phosphate buffer (0.01 M pH 6.9) were mixed in a 96-well microplate. Then the solution was incubated for 20 min at 37 °C.

[2] = target: T1, α-amylase (Sus scrofa, UniProt P00690); experiment: α-amylase inhibition (starch-iodine method); format: biochemical, porcine
T1 construct: host or cells: porcine pancreas
T1 sequence (P00690 16-511): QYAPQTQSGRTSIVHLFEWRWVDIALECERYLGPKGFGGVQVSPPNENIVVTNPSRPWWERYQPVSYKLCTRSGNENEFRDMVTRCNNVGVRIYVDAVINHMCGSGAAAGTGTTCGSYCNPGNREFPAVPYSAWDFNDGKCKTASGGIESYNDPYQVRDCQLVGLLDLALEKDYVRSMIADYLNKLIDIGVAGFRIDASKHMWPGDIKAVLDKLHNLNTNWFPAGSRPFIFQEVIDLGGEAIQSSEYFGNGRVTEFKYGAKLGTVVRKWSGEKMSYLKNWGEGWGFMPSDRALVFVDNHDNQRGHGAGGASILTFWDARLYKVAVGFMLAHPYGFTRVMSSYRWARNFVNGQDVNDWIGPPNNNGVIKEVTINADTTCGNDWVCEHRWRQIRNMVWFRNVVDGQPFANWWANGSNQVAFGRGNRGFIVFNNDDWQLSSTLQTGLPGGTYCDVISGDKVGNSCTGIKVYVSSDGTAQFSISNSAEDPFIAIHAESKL
Method: The α-amylase inhibitory activity was evaluated by using starch-iodine method[30]. The enzyme α-amylase from porcine pancreas was used and enzyme solution was prepared with phosphate buffer (20 mM pH = 6.9 phosphate buffer prepared with 6 mM NaCl). Then, 50 µL of α-amylase and 25 µL of sample solutions were mixed in a 96-well microplate. The mixture was pre-incubated for 10 min at 37 °C. Then, 50 µL of starch solution (0.05%) was added and incubated for 10 min at 37 °C. Following incubation, the reaction was completed by adding HCl (0.1 M, 25 µL) and Lugol (100 µL) solutions, and the absorbance was recorded at 565 nm.
(§1) IC50 values were calculated using a graph plotted between concentration (µg/mL) and percentage inhibition (%).

[3] = DPPH free radical scavenging assay; conditions: for DPPH assay Inhibition (%): at 200 µg/mL
Method: (§2) Antioxidant activities of all extracts were assessed by using different methods including β-carotene-linoleic acid assay, DPPH assay, ABTS assay, CUPRAC assay and Metal chelating assay. […] The DPPH assay was performed by using a spectrophotometer according to typical methods documented previously[23]. The ABTS^+assay was carried out as described previously by Re et al., (1999)[24]. The cupric reducing antioxidant capacity (CUPRAC) was evaluated by following the method published Apak et al., (2004)[25]. α-tocopherol and butylated hydroxy anisole (BHA) were used as antioxidant standards to compare the β-carotene-linoleic acid, DPPH, ABTS and CUPRAC assays. The metal chelating assay of extracts for Fe^+2 was performed by using a spectrophotometer as the method reported by Tel et al., (2012)[26]. Ethylenediaminetetraacetic acid (EDTA) was used as a standard.
(§3) IC50 values were calculated using a graph plotted between concentration (µg/mL) and percentage inhibition (%). A graph that plotted absorbance against concentration (µg/mL) was used to determine A0.50 values.

[4] = CUPRAC (cupric reducing antioxidant capacity) assay; conditions: for CUPRAC assay Absorbance: at 200 µg/mL; for CUPRAC assay A0.50: concentration giving absorbance of 0.50
Method: as §2, §3

[5] = β-carotene-linoleic acid assay (inhibition of lipid peroxidation); conditions: for β-Carotene-linoleic acid assay Inhibition (%): at 200 µg/mL
Method: as §2, §3

[6] = ABTS cation radical scavenging assay; conditions: for ABTS assay Inhibition (%): at 200 µg/mL
Method: as §2, §3

[7] = Metal chelating assay
Method: as §2, §3

[8] = target: T2, BChE (Equus caballus, UniProt P81908); experiment: Butyrylcholinesterase inhibition (DTNB spectrophotometric); format: biochemical, horse
T2 construct: host or cells: equine serum
T2 sequence (P81908 whole entry): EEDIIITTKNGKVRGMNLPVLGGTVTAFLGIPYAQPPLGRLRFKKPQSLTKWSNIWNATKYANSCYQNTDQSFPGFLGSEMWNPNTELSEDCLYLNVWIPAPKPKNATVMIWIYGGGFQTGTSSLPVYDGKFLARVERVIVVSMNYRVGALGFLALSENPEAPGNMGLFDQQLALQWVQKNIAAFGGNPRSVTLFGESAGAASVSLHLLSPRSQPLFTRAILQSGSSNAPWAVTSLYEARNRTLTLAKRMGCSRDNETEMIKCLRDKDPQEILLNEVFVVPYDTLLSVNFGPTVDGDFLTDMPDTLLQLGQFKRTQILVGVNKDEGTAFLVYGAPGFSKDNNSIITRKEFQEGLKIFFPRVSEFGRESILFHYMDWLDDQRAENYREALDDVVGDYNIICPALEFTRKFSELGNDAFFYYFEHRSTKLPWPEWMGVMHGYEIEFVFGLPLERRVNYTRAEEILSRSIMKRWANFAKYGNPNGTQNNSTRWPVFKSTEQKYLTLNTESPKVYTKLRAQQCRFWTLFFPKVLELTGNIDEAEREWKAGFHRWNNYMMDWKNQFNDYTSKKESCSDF
Method: The inhibitory activities of acetylcholinesterase and butyrylcholinesterase enzymes of the extracts were determined using spectrophotometer following the protocol described by Deveci et al., (2019) with slight modifications[27]. Acetylthiocholine iodide and butyrylthiocholine chloride were utilized as reaction substrates, while AChE from electric eels and BChE from horse serum were applied. Employing DTNB (5,5′-Dithio-bis(2-nitrobenzoic) acid), the cholinesterase activity was measured. In a nutshell, 130 µL of 100 mM sodium phosphate buffer (pH 8.0), 10 µL of sample solution at different concentrations, and 20 µL of enzyme (AChE or BChE) solution in buffer were mixed and incubated for 15 min at 25 °C, and 20 µL of 0.5 mM DTNB was added. Following that, 0.71 mM, 20 µL of acetylthiocholine iodide or 0.2 mM, 20 µL of butyrylthiocholine chloride were added to initiate the reaction. Utilizing a 96-well microplate reader, the hydrolysis of these substrates was observed spectrophotometrically by the formation of a yellow 5-thio-2-nitrobenzoate anion at a wavelength of 412 nm.
as §3

[9] = test system: tyrosinase; experiment: Tyrosinase inhibition (L-DOPA substrate); format: biochemical; conditions: at 200 µg/mL
Method: Tyrosinase enzyme inhibitory activity was measured by the spectrophotometric method as described by Masuda et al., (2005)[29]. L-DOPA was utilized as substrate of the reaction. 150 µL of sodium phosphate buffer (pH 6.8, 100 mM), 10 µL of sample and 20 µL of tyrosinase enzyme solution in buffer were mixed and incubated for 10 min at 37 °C. Following incubation, 20 µL of L-DOPA was added. The absorbances in a 96-well microplate were monitored at 475 nm after 10 min of incubation at 37 °C.
as §1

[10] = target: urease (Canavalia ensiformis, UniProt P07374); format: biochemical, jack bean
urease, sequence (P07374 whole entry, looked up): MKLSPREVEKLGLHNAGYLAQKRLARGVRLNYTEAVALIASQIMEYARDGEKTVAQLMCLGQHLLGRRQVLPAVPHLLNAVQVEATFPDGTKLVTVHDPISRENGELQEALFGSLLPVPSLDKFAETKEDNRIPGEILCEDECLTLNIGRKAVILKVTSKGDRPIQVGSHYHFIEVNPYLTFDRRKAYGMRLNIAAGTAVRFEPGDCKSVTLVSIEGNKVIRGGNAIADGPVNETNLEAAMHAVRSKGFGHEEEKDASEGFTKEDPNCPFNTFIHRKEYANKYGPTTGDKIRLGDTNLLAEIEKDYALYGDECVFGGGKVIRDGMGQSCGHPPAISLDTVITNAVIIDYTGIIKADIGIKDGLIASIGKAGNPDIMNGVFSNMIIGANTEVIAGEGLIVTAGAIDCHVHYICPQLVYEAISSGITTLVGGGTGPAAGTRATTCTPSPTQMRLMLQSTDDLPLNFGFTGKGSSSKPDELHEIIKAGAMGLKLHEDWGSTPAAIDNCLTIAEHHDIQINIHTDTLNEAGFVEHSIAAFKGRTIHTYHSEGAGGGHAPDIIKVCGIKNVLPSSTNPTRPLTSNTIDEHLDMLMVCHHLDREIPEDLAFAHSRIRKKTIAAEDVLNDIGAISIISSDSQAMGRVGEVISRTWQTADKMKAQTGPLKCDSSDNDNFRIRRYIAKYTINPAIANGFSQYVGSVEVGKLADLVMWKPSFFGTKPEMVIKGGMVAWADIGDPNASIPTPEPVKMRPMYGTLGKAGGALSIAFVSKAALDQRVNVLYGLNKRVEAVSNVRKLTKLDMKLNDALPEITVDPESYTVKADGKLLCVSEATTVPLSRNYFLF

C[C@H]1O[C@H](O[C@H]2[C@H](O)[C@@H](O)[C@@H](O[C@H]3[C@H](O)[C@@H](O)C(O)O[C@@H]3CO)O[C@@H]2CO)[C@H](O)[C@@H](O)[C@@H]1N[C@H]1C=C(CO)[C@@H](O)[C@H](O)[C@H]1O (stereo partly drawn) [Acarbose]
α-glucosidase Inhibition (%) [1]: 56.70 ± 0.75%
inhibition at 200 µg/mL [2]: 82.1 ± 0.27%

COc1ccc(O)c(C(C)(C)C)c1 [BHA, butylated hydroxyanisole]
DPPH assay IC50 [3]: 19.50 ± 0.30 µg/mL
DPPH assay Inhibition (%) [3]: 87.90 ± 0.44%
CUPRAC assay Absorbance [4]: 2.45 ± 0.07
CUPRAC assay A0.50 [4]: 25.40 ± 0.42 µg/mL
β-Carotene-linoleic acid assay IC50 [5]: 1.50 ± 0.03 µg/mL
β-Carotene-linoleic acid assay Inhibition (%) [5]: 96.20 ± 0.28%
ABTS assay IC50 [6]: 12.70 ± 0.10 µg/mL
ABTS assay Inhibition (%) [6]: 88.93 ± 0.21%

O=C(O)CN(CCN(CC(=O)O)CC(=O)O)CC(=O)O [EDTA, ethylenediaminetetraacetic acid]
Metal chelating assay IC50 [7]: 5.50 ± 0.25 µg/mL
Metal chelating assay Inhibition (%) ([7]; at 200 µg/mL): 94.40 ± 0.35%

COc1ccc2c3c1O[C@H]1C[C@@H](O)C=C[C@@]31CCN(C)C2 [Galantamine, galantamine]
inhibition at 200 µg/mL [8]: 79.43 ± 0.6%

O=c1cc(CO)occ1O [Kojic acid]
Tyrosinase inhibitory Inhibition (%) [9]: 83.54 ± 0.56%

NC(N)=S [Thiourea, thiourea]
Urease inhibitory IC50 [10]: 8.20 ± 0.36 µg/mL
Urease inhibitory Inhibition (%) ([10]; at 200 µg/mL): 87.37 ± 0.52%

Cc1c(C)c2c(c(C)c1O)CC[C@@](C)(CCC[C@H](C)CCC[C@H](C)CCCC(C)C)O2 [α-Tocopherol, α-tocopherol]
DPPH assay IC50 [3]: 38.20 ± 0.50 µg/mL
DPPH assay Inhibition (%) [3]: 84.25 ± 0.36%
CUPRAC assay Absorbance [4]: 0.88 ± 0.03
CUPRAC assay A0.50 [4]: 60.45 ± 0.30 µg/mL
β-Carotene-linoleic acid assay IC50 [5]: 2.10 ± 0.05 µg/mL
β-Carotene-linoleic acid assay Inhibition (%) [5]: 95.73 ± 0.44%
ABTS assay IC50 [6]: 34.75 ± 0.55 µg/mL
ABTS assay Inhibition (%) [6]: 83.63 ± 0.34%
